# Experiments:
# [1] = Therapeutic drug monitoring of vancomycin serum concentration (chemiluminescence immunoassay); assay type: in vivo, human; settings: mostly steady state (>4 doses) trough, 895 observations from 560 patients, dose 951.19 ± 152.23 mg/time, SD
# Description: Inclusion criteria were: 1) age ≥18 years; 2) therapeutic drug monitoring was performed during treatment and at least 1 vancomycin concentration was obtained. Exclusion criteria were: 1) pregnant women ([Lin et al., 2021]); 2) cystic fibrosis ([Jing et al., 2020]).
# (§1) The dosage regimen of vancomycin is adjusted by the clinicians according to the patient’s conditions and renal function, including 1 g Qd, 1 g Q12h, 1 g Q8h, 0.5 g Qd, 0.5 g Q12h, 0.5 g Q8h and 0.5 g Q6h. The infusion time cannot be accurately obtained, but 1 h infusion was most used in clinical applications, so the default infusion time in this study was 1 h. Vancomycin serum concentrations were obtained from patient’s therapeutic drug monitoring data, most of which were steady state (>4 doses) trough concentrations. The blood samples were anticoagulated by Ethylene Diamine Tetraacetic Acid, centrifuged at 5,000 rpm for 3 min and analyzed by chemiluminescence immunoassay (ADVIA Centaur® XP, Siemens). Sample calibration and quality control were carried out in accordance with the manufacturer’s instructions and the calibration range was 0.67–90 mg/L.
# [2] = fixed, not estimated, ref Jing et al., 2020, cited from earlier work
# [3] = ref Rybak, 2006, cited from earlier work
# [4] = ref Lin Wu et al., 2015; cited from earlier work
# [5] = Population pharmacokinetic (NLME, one-compartment) model of vancomycin in postoperative neurosurgical patients
# Description: The data of patients who received vancomycin therapy from October 2018 to March 2022 in Beijing Tiantan Hospital, Capital Medical University were retrospectively collected. Inclusion criteria were: 1) age ≥18 years; 2) therapeutic drug monitoring was performed during treatment and at least 1 vancomycin concentration was obtained. Exclusion criteria were: 1) pregnant women ([Lin et al., 2021]); 2) cystic fibrosis ([Jing et al., 2020]).
# as §1
# In this study, nonlinear mixed effects modeling (NLME) method was used to construct the PPK model. Pharmacokinetic parameters and the variability were assessed using the first-order conditional estimation with extended least square method (FOCE-ELS) by using the Phoenix® NLME software (version 8.3; Certara, St. Louis, Missouri). Bootstrap and visual predictive check (VPC) were used to test the stability and predictive ability of the final model.
# The one-compartment model with first-order elimination was used to describe the pharmacokinetic characteristics of vancomycin. The sparse trough concentration data led to the inaccurate estimation of the V. Therefore, the population typical value of V was fixed at 60.2 L according to a PPK model in Chinese neurosurgery adult patients ([Jing et al., 2020]).
# Inter-individual variability (η) of PPK model was described by exponential random effect model in Eq. 1. Residual variability (ε) was described by combined (multiplicative and additive) error model in Eq. 2. The η was assumed to follow a normal distribution with a mean of zero and a variance of ω ^2. The ε was assumed to follow a normal distribution with a mean of zero and a variance of σ ^2. θi=θTV×e^ηi, (1) Cobs=Cpred+ε×1+(Cpred×σ1/σ2)^2 (2) where θ TV is the population typical value of pharmacokinetic parameters, θ i is the individual (i ^th) pharmacokinetic parameters. Cobs and Cpred respectively represent the measured concentration and predicted concentration of a patient; σ 1 represents the multiplicative σ, and σ 2 represents the standard deviation of ε.
# Continuous covariates included age, height, BW, body mass index, serum creatinine (Scr), creatinine clearance (CLcr) and estimated glomerular filtration rate (eGFR). Categorical covariates included sex, RRT and concomitant drugs (mannitol, meropenem and diuretics). CLcr is calculated by the Cockcroft-Gault equation ([Cockcroft and Gault, 1976]). eGFR is calculated by the Chronic Kidney Disease Epidemiology Collaboration (CKD-EPI) equation ([Kong et al., 2013]). All continuous covariates are centered at their median values. The difference of the objective function value (OFV) was used to compare the models.
# After the establishment of the base model, the effects of covariates on pharmacokinetic parameters were tested by forward addition and backward elimination under stepwise manner. In the forward addition, if the decrease of OFV was greater than 6.64 (p < 0.01, df = 1), the covariate was considered to have a significant influence on the model parameters.
smiles,measurement,setting,value
"CN[C@H](CC(C)C)C(=O)N[C@H]1C(=O)N[C@@H](CC(N)=O)C(=O)N[C@H]2C(=O)N[C@H]3C(=O)N[C@H](C(=O)N[C@H](C(=O)O)c4cc(O)cc(O)c4-c4cc3ccc4O)[C@H](O)c3ccc(c(Cl)c3)Oc3cc2cc(c3O[C@@H]2O[C@H](CO)[C@@H](O)[C@H](O)[C@H]2O[C@H]2C[C@](C)(N)[C@H](O)[C@H](C)O2)Oc2ccc(cc2Cl)[C@H]1O [vancomycin, Vancomycin]","Concentration (mg/L), mean ± standard deviation",[1],14.20 ± 7.36 mg/L
same,"V (L), base model",[2]; base model,60.2 L
same,"V (L), Bootstrap",[2]; bootstrap,60.2 L
same,"V (L), apparent distribution volume, final model",[2]; final model,60.2 L
same,absorption by oral administration,[3]; oral,almost not absorbed
same,α half-life,"[3]; patients with normal renal function, printed as 'approximately'",0.5 to 1 h
same,terminal elimination half-life,[3]; patients with normal renal function,3 to 9 h
same,protein binding rate,[3]; printed as 'about',10%–50%
same,share of vancomycin excreted in prototype through the kidney,[3]; within 24 h after administration,more than 80%
same,V in another eligible study,[4],54 ± 17 L
same,"Mannitol on CL (L/h), final model, Estimate (%RSE)","[5]; A in e^A of the CL equation when co-medicated with mannitol, final model",0.13 (17.85) L/h
same,"Mannitol on CL (L/h), Bootstrap Median (%RSE)","[5]; A in e^A when co-medicated with mannitol, bootstrap, 5,000 data sets",0.13 (17.72) L/h
same,"CL (L/h), base model, Estimate (%RSE)",[5]; base model without covariates,8.08 (1.93) L/h
same,"CL (L/h), Bootstrap Median (%RSE)","[5]; bootstrap of final model, 5,000 data sets",7.97 (2.24) L/h
same,"BW on CL (L/h), final model, Estimate (%RSE)","[5]; exponent of (BW/70) in the CL equation, final model",0.30 (20.19) L/h
same,"BW on CL (L/h), Bootstrap Median (%RSE)","[5]; exponent of (BW/70), bootstrap, 5,000 data sets",0.30 (19.91) L/h
same,"eGFR on CL (L/h), Bootstrap Median (%RSE)","[5]; exponent of (eGFR/115.2), bootstrap, 5,000 data sets",0.80 (4.39) L/h
same,"CL (L/h), population typical value, final model, Estimate (%RSE)","[5]; final model, one-compartment, FOCE-ELS, 895 concentrations from 560 patients, iv infusion, covariates centred at eGFR 115.2, BW 70, no mannitol",7.98 (1.90) L/h
same,increase in vancomycin CL when co-medicated with mannitol,"[5]; final model, with versus without mannitol",14%
same,typical value of vancomycin CL per body weight,"[5]; this study, postoperative neurosurgical patients",1.83 mL/min/kg
